# The METLIN SMRT retention time set (Domingo-Almenara et al. 2019)
# Assay: gradient 5% acetonitrile 3 min, to 50% in 2 min, to 85% in 15 min, held 3 min, 100 µL/min
# Settings: column: Zorbax Extend-C18 2.1 x 50 mm; eluents: water / acetonitrile, 0.1% formic acid
# In short: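 Each retention time is based on an adduct peak selected computationally and verified by manual inspection. Measurements used HPLC–quadrupole time-of-flight mass spectrometry in positive and negative ionization mode on mixtures of ~100 pure standards. Chromatography ran on a Zorbax Extend-C18 column (2.1 × 50 mm, 1.8 μm) at 100 μL/min with water and acetonitrile, each containing 0.1% formic acid, and dead and dwell volumes of 40 μL and 900 μL.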
row,RP-LC retention time,Compound
1,782 s,O=C(Cn1ccc2c(SCc3ccc(F)cc3)nccc21)N1CCN(c2ccccc2)CC1
2,670 s,O=C(C1CCN(c2cncnc2N2CCCC2)CC1)N1CCN(c2ccc(F)cc2)CC1
3,595 s,CCCn1c(CN2CCCC2)nc2cc(NC(=O)C(C)C)ccc21
4,572 s,CC(C)n1cnc2cc(CNC(=O)c3cnccn3)ccc21
5,638 s,O=C(Nc1ccc2c(c1)OCCO2)c1ccnc(N2CCNC(c3ccccc3)C2)c1 (centres undefined)
6,882 s,O=C(c1cn(-c2cccc(Cl)c2)nn1)N1CCN(c2ccccc2F)CC1
7,559 s,Cc1nc(-c2ccncc2)nc2c1CCC(=O)N2Cc1ccccn1
8,935 s,CCCC(=O)Nc1nc(-c2ccc3c(c2)N(CCC)C(=O)CO3)cs1
9,757 s,O=C(Cn1nc(C(=O)N2CCCC2)c2ccccc21)NCc1ccc2c(c1)OCO2
10,953 s,COc1ccc(-c2noc(CN3C(=O)COc4ccccc43)n2)cc1
11,1000 s,O=C(C1CCCN(c2ncnc3c2nc2n3CCCCC2)C1)N1CCC(Cc2ccccc2)CC1 (centres undefined)
12,780 s,COc1ccc2[nH]cc(CCN3CC(C(=O)Nc4nnc(C(F)(F)F)s4)CC3=O)c2c1 (centres undefined)
13,589 s,Cn1c(N2CCCC(C(=O)NCC3CCN(CCc4cccs4)CC3)C2)cc(=O)n(C)c1=O (centres undefined)
14,879 s,COC(=O)C1=CN(c2ccccc2C)c2ccc(F)cc2S1(=O)=O
15,763 s,CC1(C)CC(=O)c2cn(-c3ccc(Cl)cc3)c(=O)c(C(=O)Nc3cccnc3)c2C1
16,626 s,CCN(CCNC(=O)CCc1cc2cc(OC)ccc2[nH]c1=O)Cc1ccccc1
17,1160 s,C#CCOc1ccc2c(c1)c(-c1ccc(C(C)C)cc1)nc(=O)n2C(C)C
18,760 s,COc1cccc(NC(=O)Cn2nc3cc(C)nc(N4CCCC4)n3c2=O)c1
19,852 s,COc1cccc(N2N=NC3C(=O)N(c4ccc(OC)c(OC)c4)C(=O)C32)c1 (centres undefined)
20,1460 s,Cc1ccc(Cn2cccc2-c2nc(-c3ccc(F)cc3)no2)cc1
21,993 s,Cc1ccc(C(=O)Nc2cc(-c3cccs3)no2)cc1
22,805 s,CN(C)c1ccc(CNC(=O)c2cc(=O)n3c(nc4ccccc43)s2)cc1
23,953 s,O=C(O)c1ccc2c(c1)C(=O)N(Nc1ccccc1[N+](=O)[O-])C2=O
24,1270 s,Cc1ccc(-c2nnc(Cc3nc(-c4cccc(Br)c4)no3)o2)cc1C
25,1180 s,Cc1cc(C)c(NC(=O)Cn2nc(N3CCCC(C)C3)c3ccccc3c2=O)c(C)c1 (centres undefined)
26,615 s,CSc1ccccc1NC(=O)C(=O)NCC1CCN(Cc2cc(C)oc2C)CC1
27,962 s,O=C(Cc1ccc(Cl)cc1)Nc1cnc(N2CCCCC2)nc1

# The remaining lines, values behind:
row,Compound,RP-LC retention time
1,Cn1nc(-c2nc(C3CC3)no2)c2c1CCN(C(=O)c1ccc(F)c(F)c1)C2,831 s
2,CCCNC(=O)N1CCN(Cc2nc3cccnc3n2-c2ccc(CC)cc2)CC1,641 s
3,Cc1noc(C2(NC(=O)c3sccc3C)CCCCC2)n1,882 s
4,CC(C)(C)c1noc(-c2ccc(=O)n(Cc3cccc(Cl)c3)n2)n1,1150 s
5,Cc1ccccc1NC(=O)Cn1nc(N2CCSCC2)c2ccccc2c1=O,892 s
6,CCOc1nc2ccccc2nc1N1CCCC(C(=O)Nc2ccc(Cl)cc2)C1 (centres undefined),1300 s
7,Cc1nc(-c2ccccc2)cc2nn(CC(=O)Nc3ccccc3Cl)c(=O)n12,966 s
8,CCn1c(CCNC(=O)c2ccc(F)cc2F)nc2cccnc21,641 s
9,Cc1cc(-c2nnc(-c3ccccc3)o2)c(C)n1CC(=O)NC(C)c1ccccc1 (centres undefined),921 s
10,CCCNC(=O)C1CCCN(c2ccc(SCC(=O)Nc3ccc(OC)cc3)nn2)C1 (centres undefined),647 s
11,Fc1ccc(OCc2cn(C3CN(Cc4ccc(F)cc4F)C3)nn2)cc1,703 s
12,COc1ccc(C(=O)Nc2nc(-c3ccc([N+](=O)[O-])cc3)cs2)cc1OC,1010 s
13,C[C@@H]1c2ccccc2CCN1C(=O)Cc1ccccc1F,950 s
14,CCCn1ccc2sc(C)c(C(=O)NC(C)c3ccccc3)c2c1=O (centres undefined),900 s
15,COc1ccccc1-c1nc(Cn2nnc(-c3nc(-c4ccccc4C)no3)c2C)c(C)o1,1180 s
16,COCCNC(=O)N1CCCN(C2=NS(=O)(=O)C(c3ccc(Cl)cc3)=C2C)CC1,718 s
17,CN(C)C(CNC(=O)Nc1cccs1)c1cccs1 (centres undefined),556 s
18,COCC(=O)Nc1ccc2c(c1)Sc1ncccc1C(=O)N2C(C)C,645 s
19,Cc1ccc2oc(N3CCCN(C(=O)c4ccc(-c5noc(C6CC6)n5)cc4)CC3)nc2n1,648 s
20,OC(CNCc1ccc(-c2ccc(Cl)cc2Cl)o1)c1ccccc1 (centres undefined),800 s
21,O=C(NCc1ccc(S(=O)(=O)N2CCCC2)s1)c1cccc(-c2nnc(-c3ccccc3)o2)c1,948 s

row,Compound,RP-LC retention time
1,O=C(Nc1nnc(C2CC(=O)N(c3ccc(Cl)cc3)C2)o1)c1ccccc1 (centres undefined),752 s
2,Cn1ncc2c(N3CCCC3)nc(C(=O)NCc3ccc(F)cc3)nc21,790 s
3,Cc1ccccc1Cc1nc2ccccc2n1CC(N)=O,570 s
4,COc1ccc2c(c1)C1(CCN(C(=O)c3ccc(C#N)cc3)C1)C(=O)N2 (centres undefined),762 s
5,CCNc1cc(N2CCCC(CCC(=O)Nc3ccccc3)C2)ncn1 (centres undefined),669 s
6,O=C(NCc1ccccc1F)c1c(O)c2cccnc2n(-c2cccc(F)c2)c1=O,1170 s
7,Cc1cccc(Cl)c1NC(=O)/C=C/c1ccccc1,850 s
8,O=C(CN1C(=O)C2CCCCN2c2ccc(C(=O)N3CCOCC3)cc21)NCc1ccc(F)cc1 (centres undefined),734 s
9,CNC(=O)[C@@H]1CN(S(=O)(=O)c2ccc(Cl)s2)C[C@H]1c1nc(C)no1,758 s
10,O=C(NCC1CCN(C(=O)Oc2ccccc2)CC1)C(=O)Nc1cccnc1,610 s
11,O=C(Cc1ccccc1F)NC(c1ccccc1)c1nnc(N2CCCC2)o1 (centres undefined),784 s
12,O=C(CN1CCc2ccccc2C1C(=O)N1CCCCC1)NCc1ccccn1 (centres undefined),755 s
13,COc1cccc(-c2noc(C3CCCN3C(=O)Nc3ccccc3OC)n2)c1 (centres undefined),1020 s
14,CC1=C(c2ccc(C)cc2)S(=O)(=O)N=C1N1CCCN(C(=O)c2ccccc2C)CC1,898 s
15,COc1cccc(Cn2cc(C(=O)O)nn2)c1,635 s
16,O=S(=O)(Nc1cnn(-c2ncc(N3CCCC3)cn2)c1)c1ccc2c(c1)CCCC2,983 s
17,Cn1nc(-c2nc(-c3ccc(F)cc3)no2)c2c1CCN(C(=O)NC1CCCC1)C2,771 s
18,Cc1nnc(-c2coc(S(=O)(=O)N3CCOCC3)c2)o1,654 s
19,Cc1noc(-c2cccn2Cc2cc(F)cc(F)c2)n1,1040 s
20,Cn1c(=O)n(CCCC#N)c2cncnc21,550 s
21,Cc1ccc(-c2nocc2CCC(=O)NCc2ccc3c(c2)OCO3)cc1,816 s

row,Compound,RP-LC retention time
1,CN1C(=O)c2cc(C(=O)N3CCCCC3)nn2CC1(C)C(=O)NC1CCCCCC1 (centres undefined),782 s
2,COc1cccc(COc2coc(C(=O)Nc3nnc(C)s3)cc2=O)c1,660 s
3,Cc1oc(-c2ccc(C(=O)NCCCN3CCCC3)cc2)nc1COc1ccccc1,715 s
4,CCOC(=O)CSc1nnc(-c2cccnc2)n1-c1ccccc1,654 s
5,COCCNc1nc(-c2ccc([N+](=O)[O-])cc2)nc2ccccc12,696 s
6,CCc1noc(NC(C)=O)c1-c1ccc(C)c(S(=O)(=O)N2CCc3ccccc32)c1,920 s
7,CCc1onc(C)c1C1CCCN1C(=O)c1c(Cl)cnn1CC (centres undefined),773 s
8,CCc1nc2c(NC(=O)Cc3cccnc3)cccn2n1,556 s
9,COC(=O)c1cccc(NC(=O)c2cnc3c(c2)c(=O)n(C)c(=O)n3-c2ccccc2)c1,874 s
10,CNC(=O)c1cn(-c2ccc(-c3nc(C(C)(C)C)no3)cn2)cn1,806 s
11,CC(=O)Nc1ccc(-c2noc(C3CCN(C(=O)c4ccc5cc[nH]c5c4)CC3)n2)cc1,737 s
12,CCOC(=O)N1CCC2(CC1)N=C(c1ccc(OCC)cc1)CC(c1ccccc1O)N2 (centres undefined),772 s
13,COc1ccccc1NC(=O)C1Cc2ccccc2CN1S(=O)(=O)c1ccccc1 (centres undefined),1070 s
14,CCn1c(=O)c2ccccc2n(Cc2nc(-c3ccccc3Br)no2)c1=O,1020 s
15,CCCn1c(=O)sc2cc(S(=O)(=O)N3CCN(C(=O)C4CCN(C(C)=O)CC4)CC3)ccc21,722 s
16,Cn1nc(C(=O)N2CCCC2)c2c1CCN(C(=O)CCC(=O)N1CCCCCC1)C2,664 s
17,COCC1(O)CCOC2(CCN(Cc3c(F)cccc3Cl)CC2)C1 (centres undefined),543 s
18,Cc1ccc(C2=NC3(CCN(C(=O)c4ccc[nH]4)CC3)ON2)cc1,747 s
19,CCc1ccc(C2=C(C)C(N3CCC(NC(=O)CCOC)CC3)=NS2(=O)=O)cc1,761 s
20,O=C1NCCCCCN(C(=O)c2ccc(Cn3ccnc3)o2)[C@H]2CCC[C@@H]12,567 s
